Data on 3 molecules can be found in patent US20230073301A1, “TISSUE DOSING FOR INTRALUMINAL LOCAL DRUG DELIVERY” (ISOLA THERAPEUTICS, INC., priority 2020, published 2023).

Several values for one entry are separate records, joined by “and”; a condition that tells them apart may be missing. Equal values may be shown once. Read-outs that look alike come from different tables or passages of the source.

Series [1] is described as follows: Animal experiment, second pig: endoluminal airway paclitaxel, lung tissue concentration. The note with it: soaking solution 75.8 μM in airways, approximately 20 minutes dwell.
Experimental: (§2) A first pig was given 4.28 mg/kg/hr of paclitaxel systemically, i.e., intravenously over three hours. […] Next, the lung tissue in a second pig was saturated with paclitaxel via the airways by an endoluminal approach. […] The drug solution dwelled in the airways of the second animal for approximately 20 minutes to ensure saturation of the lung tissue before being evacuated from the airways.
The nature of series [2]: GMX002 plasma PTX concentration after local lung lavage. Format: in vivo, porcine. The method, then: For GMX002 (local), anatomy permitting, 2 animals were divided into a 20 minute animal and a 72 hour animal.
The necropsy for tissue collection was completed to obtain information on the drug concentration within the lung and lung lymph nodes.
The chronic (72 hour) animal in the study was recovered with blood plasma samples collected immediately after infusion, followed by additional blood plasma collection occurring at 5, 15, and 30 minutes following infusion. More blood plasma was collected after 1, 3, 5, 9, 24, and 72 hours. The necropsy for tissue collection took place 72 hours after infusion with drug concentration measurements in the lung and lung lymph nodes. Histopathology was done on the lung.
Animal 19P0844 was infused with 700 mL. Animal 19P1241 was infused with approximately 900 mL.
Animal 19P1241 had 2 mL of blood collected at baseline and at 5, 10, 15 and 20 minutes of infusion. Plasma was collected for processing. Animal 19P0884 had 2 mL of blood collected at baseline, 5, 10, 15 and 20 minutes of infusion. Following infusion, blood was collected at 5, 15, 30 minutes with more blood being collected after 1, 3, 5, 9, 24, and 72 hours.

A short description of series [3]: in vivo. The note with it: pig, intravenous.
Text: (§3) The necropsy for tissue collection after the last plasma sample focused on drug concentration and included: lung, lung lymph nodes, colon, and the colon lymph nodes.
(§4) Spectra were compared to the validated protocol and standard curve generated for the study.
(§5) The acute animal (19P0837) and the chronic animal (19P0997) were sent to necropsy for gross pathology and tissue harvesting. Three full thickness lung tissue samples from each of the cranial (cran) caudal (caud) and middle (mid) lobes were frozen and sent for analytical analysis.
Series [4] is classed as in vivo, porcine. The method, then: (§1) For GMX001, both animals underwent surgery to place two (2) CVL catheters, 1 for infusion and 1 for plasma collection. The animals were allowed to recover and stabilize.
Animal 19P0837 had 2 mL of blood collected at baseline and after the 3 hours infusion. […] Blood was processed and sent to Analytical for processing. […] The animal survived to the scheduled term with signs of discomfort as per technician's observations. The animal had blisters on the chest at day 3, prior to term.
Gross examination of the lungs, colon, jejunum, regional lymph nodes, and collateral structures was conducted. […] Lungs were also slightly heavy. […] Small intestine appeared bloated diffusely. The lumen of darkened jejunum section appeared mottled dark purple to black. There were no other abnormal findings noted at necropsy.

Series [5] is described as follows: GMX001 plasma PTX concentration after systemic infusion (LC/MS). It is filed as in vivo, porcine. The note with it: pig; for concentration at 3 h: systemic infusion 175 mg/m^2 over 3 hours; for Cmax: iv, 175 mg/m2, systemic. As for the experimental part:
The systemic studies were denoted GMX001 and local administration studies GMX002.
For GMX001 (systemic), anatomy permitting, 2 animals were used and divided into a 3 hour animal and a 72 hour animal.
as §1

Series [6] can be described thus: GMX001 lung and lung lymph node PTX concentration after systemic infusion.
Text: as §3, §4, §5
The nature of series [7]: GMX001 colon tissue PTX concentration after systemic infusion. It is filed as in vivo, porcine. The note with it: 3 hour animal 19P0837; for concentration at 3 h: pig, intravenous, 4.28 mg/kg/hr, Colon PTX concentration. An excerpt: Three samples each were taken from the rectum, transverse (tran) colon, ascending (asc) colon, descending (desc) colon and colon lymph nodes (LN).

A short description of series [8]: GMX002 lung tissue PTX concentration after local lung lavage. It is filed as in vivo, porcine. The conditions noted are these: for concentration at 20 min: pig.
Experimental: A blood sample was also collected at 0, 5, 10, 15, and 20 minutes.
as §4
The acute animal (19P1241) and the chronic animal (19P0884) were sent to necropsy for gross pathology and tissue harvesting. Three full thickness lung tissue sample from each of the cranial (cran) caudal (caud) and middle (mid) lobes of the untreated left lung and three lung tissue samples from each of the cranial (cran) caudal (caud) and middle (mid) lobes of the treated right lung were taken from the 20 minute animal, frozen and sent for analytical analysis.
Series [9] is described as follows: Animal experiment, first pig: systemic paclitaxel, plasma and lung tissue concentration.
Experimental: as §2
The conditions of series [10]: humans, cited from earlier work.
Series [11] is described as follows: Porcine local levofloxacin: pathology and side effects. Format: in vivo.
Experimental: (§6) Porcine studies were performed similarly to as described in Example A but using levofloxacin as the drug agent. Only local administration to the lung was performed.
Series [12] in a line: in vivo. The conditions noted are these: pig.
Experimental: as §6
The conditions of series [13]: humans; systemic administration; cited from earlier work.
For series [14] the following is noted: pig, in vivo.
Experimental: as §6
Where [15] appears, read: lung tissue (RT mid lung), 175 mg/m^2.
[16] abbreviates: systemic, 3 hour animal 19P0837.
Setting [17] is: systemic, 72 hour animal 19P0997.
Setting [18] is: local lavage of right lung, 20 min, animal 19P1241.

In the case of `CC(=O)O[C@H]1C(=O)[C@@]2(C)[C@H]([C@H](OC(=O)c3ccccc3)[C@]3(O)C[C@H](OC(=O)[C@H](O)[C@@H](NC(=O)c4ccccc4)c4ccccc4)C(C)=C1C3(C)C)[C@]1(OC(C)=O)CO[C@@H]1C[C@@H]2O` [PTX, 5β,20-Epoxy-1,2α,4,7β,10β,13α-hexahydroxytax-11-en-9-one 4,10-diacetate 2-benzoate 13-ester with (2R,3S)-N-benzoyl-3-phenylisoserine], the “average lung tissue concentration TC” value in series [1] was determined as 40.4 µM; in [9] (samples immediately after systemic delivery), 37.9 µM. Also, the “plasma Cmax local / systemic” value in [2] ([…]57000 ng/mL) is 0.048%; in series [2] ([…]67100 ng/mL) it was 0.041%. Besides, in series [2] (local vs systemic), the “plasma Cmax for local administration as % of plasma Cmax with systemic administration” value is “less than 0.05%”. The “plasma Cmax lower with local than with systemic administration” value in series [2] (local vs systemic) is recorded as “more than 2000 fold”. Also, the “time of peak plasma concentration after end of lung infusion” value in [2] (local, 32,000 ng/mL, after the lung was cleared of the drug) stood at 5 min. Moreover, the “time of peak concentration of PTX in plasma after infusion initiation” value in series [2] (local, 72 hour animal 19P0844) was 25. The Cmax in series [2] (pig, plasma, other: local lung lavage (right lung, via catheter), 32000 ng/mL (lavage solution), local, 5 minutes post local infusion, read-out: maximum concentration in plasma (Cmax)) was determined as 27.6 ng/mL; in series [5] (3 hour animal), 57000 ng/mL; in series [5] (72 hour animal) it was 67100 ng/mL. The concentration at 72 h came out at 4340 ng/g in series [3] (lung lymph node, 175 mg/m^2); 3560 ng/g in [3] (setting [15]); 2720 ng/g in series [3] (lung, right caudal lobe, 4.28 mg/kg/hr); 713 ng/mL in series [5] (intravenous, 175 mg/m^2, Blood PTX concentration, systemic infusion, animal 19P0997, 72 hr). Also, the concentration at 3 h in series [3] (lung tissue (RT caud lung), 175 mg/m^2) is 42900 ng/g; in series [3] (lung tissue (RT cran lung), 175 mg/m^2), 32200 ng/g; in [3] (setting [15]), 32000 ng/g; in series [5] (intravenous, 175 mg/m^2, Blood PTX concentration, animal 19P0837, 3 hr) it was 57000 ng/mL; in series [5] (intravenous, 175 mg/m^2, Blood PTX concentration, animal 19P0997, 3 hr) it was 67100 ng/mL; in [7] (ascending colon, asc colon), 10800 ng/g. Moreover, the concentration at 3 h in [7] (colon lymph nodes, colon LN) worked out at 19600 ng/g; in series [7] (descending colon, desc colon), 12500 ng/g; in series [7] (rectum), 14400 ng/g; in series [7] (transverse colon, tran colon) it was 13500 ng/g. In addition, the early mortality entry in series [4] (GMX001) was “no early mortality” and the early mortality result (GMX002) was “no early mortality”. Besides, the distress with infusion entry in series [4] (pig, in vivo) is reported as “showed distress”. The terminal clinical pathology entry in series [4] (pig, in vivo) was “decrease in WBC, neutrophils, lymphocytes and platelet counts”; the terminal clinical pathology entry (pig, in vivo) was “clinical markers comparable to baseline”. Also, the Clinical observations result (pig, in vivo) is “GMX002: Unremarkable”. Further, under “pig, in vivo”, the Physical examination entry was “GMX002: Unremarkable”. The “adverse events / clinical observations” value (pig, in vivo) is recorded as “did not have any adverse events”. Further, for the setting “pig, in vivo”, the “distress or complications during administration” value is “did not show signs of distress or complications”. Also, the gross necropsy findings result (pig, in vivo) was “no other abnormal findings noted at necropsy that could be attributed to the treatment”. Also, in [5] (intravenous, 175 mg/m^2, Blood PTX concentration, systemic infusion, animal 19P0997, 4 hr), the concentration at 4 h was 43100 ng/mL. Further, in [5] (intravenous, 175 mg/m^2, Blood PTX concentration, systemic infusion, animal 19P0997, 6 hr), the concentration at 6 h came to 28500 ng/mL. For the same molecule, the concentration at 8 h in series [5] (intravenous, 175 mg/m^2, Blood PTX concentration, systemic infusion, animal 19P0997, 8 hr) came out at 27100 ng/mL. In addition, the concentration at 12 h in series [5] (intravenous, 175 mg/m^2, Blood PTX concentration, systemic infusion, animal 19P0997, 12 hr) amounted to 20500 ng/mL. In series [5] (intravenous, 175 mg/m^2, Blood PTX concentration, systemic infusion, animal 19P0997, 24 hr), this molecule yielded a concentration at 24 h of 9110 ng/mL. Further, the “decrease of lung PTX concentration 72 hours following systemic administration” value in series [6] (3 hour animal 19P0837 vs 72 hour animal 19P0997) is “approximately 3.5 fold”. For the same molecule, the “PTX in lung tissue achieved” value in series [6] (systemic administration (GMX001)) was “greater than 30000 ng/g”. The “lung tissue concentration range” value in [6] (systemic drug delivery at 3 hours) is reported as 12,500-41,200 ng/g. Further, the “Lung PTX concentration, RT caud lung” value was 28800 ng/g and 31600 ng/g in series [6] (setting [16]); 2070 ng/g in series [6] (setting [17]); 35300 ng/g tissue and 29800 ng/g tissue in series [8] (setting [18]). The “Lung PTX concentration, RT cran lung” value in [6] (setting [16]) is 27000 ng/g and 27300 ng/g; in series [6] (setting [17]), 2660 ng/g; in [8] (setting [18]) it was 32100 ng/g tissue and 38400 ng/g tissue. The “Lung PTX concentration, RT mid lung” value in [6] (setting [16]) is 41200 ng/g and 28300 ng/g; in series [6] (setting [17]), 2590 ng/g. Moreover, the “Lung PTX concentration, lung LN” value in series [6] (systemic, 72 hour animal 19P0997, lung lymph node samples) came to 4240 ng/g. For the same molecule, the “Colon PTX concentration, asc colon” value in series [7] is 16900 ng/g and 13200 ng/g. Moreover, the “Colon PTX concentration, colon LN” value in [7] is 12700 ng/g and 17700 ng/g. The “Colon PTX concentration, desc colon” value in series [7] is 12700 ng/g and 12800 ng/g. Besides, the “Colon PTX concentration, rectum” value in series [7] is 14100 ng/g and 16000 ng/g. In addition, in series [7], the “Colon PTX concentration, tran colon” value is 14600 ng/g and 13200 ng/g. In addition, in series [8] (local lavage of right lung, 20 min, animal 19P1241, middle lobe believed blocked), the “Lung PTX concentration, RT Mid Lung” value was 760 ng/g tissue and 557 ng/g tissue. Besides, the “lower drug concentration with local vs systemic administration for same lung tissue uptake” value in series [8] (local vs systemic) came to 37 fold. The concentration at 20 min in series [8] (lung tissue, other: local lung lavage (right lung, via catheter), 32000 ng/mL (lavage solution), PTX in lung tissue achieved, local administration (GMX002)) was greater than 30000 ng/g; in [8] (lung tissue, other: local lung lavage (right lung, via catheter), 32000 ng/mL (lavage solution), PTX per g of lung tissue, local, acute animal), roughly 32000 ng/g; in series [8] (lung tissue, other: local lung lavage (right lung, via catheter), 32000 ng/mL (lavage solution), highest PTX level in lung tissue, local administration) it was 38400 ng/g; in [8] (lung, caudal lobe of the treated right lung, 32000 ng/mL, Lung PTX concentration, RT Caud Lung, local lavage of right lung, 20 min, animal 19P1241) it was 34600 ng/g; in series [8] (lung, middle lobe of the treated right lung, 32000 ng/mL, Lung PTX concentration, RT Mid Lung, local lavage of right lung, 20 min, animal 19P1241, middle lobe believed blocked), 749 ng/g. Besides, the “maximum plasma concentration MPC” value in series [9] (4.28 mg/kg/hr intravenously over three hours) turned out to be 78.58 µM.

In the case of `N.N.[Cl][Pt][Cl]` [cisplatin], in [10] (systemic administration, read-out: Typical plasma Cmax), the Cmax was 30 µM. Also, the “typical lung tissue Cmax” value in series [10] (systemic delivery) is 170 µM.

Turning to `C[C@H]1COc2c(N3CCN(C)CC3)c(F)cc3c(=O)c(C(=O)O)cn1c23` [levofloxacin], the “lung damage at pathology” value in series [11] (following local delivery) is “No lung damage was observed”. The side effects entry in [11] (local delivery) is recorded as “no significant side effects”. In series [12], this molecule gave a Cmax of 291 ng/mL. Further, in [13], the “Typical plasma Cmax” value is 5600 ng/mL. The molecule further gave a Sputum levels in series [14] of 32 µg/mL.
